Reference: patent US20130267588A1, “HYDROXYTYROSOL ETHERS” (FUNDACIO IMIM, priority 2010, published 2013)
Like-named read-outs stand apart in the source and are kept apart here.

What was measured:
CB1 receptor = biological target: T1, CB1 receptor (Rattus norvegicus, UniProt P20272); assay: Ligand-receptor assay for the CB1 receptor, displacement of [3H] SR141716; type: binding; details: rat cerebellum membranes
T1 construct: displace [^3H]; from tissue; host or cells: rat cerebellum membranes
Experimental: The ligand-receptor assay for the CB1 receptor evaluates the capacity of the synthesized compounds to displace [^3H]
The ligand-receptor assay was performed using the CB1 labeled antagonist, [^3H] […] 450 μL of pH-regulating solution A (50 mM Tris pH=7.4 with 0.5% bovine serum albumin (BSA)), 100-200 μg rat cerebellum membranes, the diluted product and the labeled CB1 antagonist, [^3H] […] After incubating for […] at 37° C., the reaction was stopped with 1 mL of pH-regulating solution A. The mixture was centrifuged at 5000 rpm for 5 minutes. The supernatant was discarded and the pellet washed with another 1 mL of pH-regulating solution A, centrifuged and the supernatant one again was discarded. Scintillation liquid was added and the samples were read in a beta particle counter (Liquid Scintillation Analyzer, Tri-Carb 2100 TR, PACKARD, Packard Bioscience Company).

male Wistar rats = assay: Acute intake experiment in animals fasting for 24 hours; type: in vivo, rat; details: rats fasted 24 hours, food given 30 min after injection, n=8
Experimental: All the in vivo experiments were performed using male Wistar rats weighing 200-500 g. The animals were housed in individual cages in a room with controlled temperature (23° C.) and humidity (50%) with a 12/12 light and dark cycle. The animals had access to water and food ad libitum except in specific experimental methods. The animals were manipulated once a day for this two days before the experimental sessions. All the products were dissolved in a mixture of DMSO (5%), Tween 60 (5%)/saline (90%). The in vivo experiments included the analysis of intake and effects on general behavior. None of the assayed compounds altered the general behavior of the animal but some reduced the animal's appetite (FIGS. 1 to 8).
The acute effect on the intake of all the products was tested in animals fasting for 24 hours.
Thirty minutes after injection, previously weighed food was put in the cage. The food was weighed 30, 60, 120 and 240 minutes after starting the test. All the intake experiments were performed with groups of 8 animals (n=8) (FIGS. 1 to 8). […] The compounds (Z)-1-(2-phenylethoxy)octadec-9-ene (Example 3, FIG. 1) and (Z)-1-(2-(3,4-methylenedioxyphenyl)ethoxy)octadec-9-ene (Example 2, FIG. 3) reduced intake by about 25%. All the compounds had long-term effects, the reduction of intake being significant 4 hours after administration.

LDL = assay: Conjugated dienes experiment, copper-induced LDL oxidation; type: biochemical, human; details: compounds at 0.5, 1 and 3 μM
Experimental: Blood from healthy, fasting volunteers is collected in tubes containing 1 g/L of EDTA. The plasma is prepared by centrifugation at 1,000 g and 4° C. for 15 minutes. LDL is isolated by sequential ultracentrifugation. Native LDL is dialyzed by size exclusion chromatography in Sephadex G25 columns (Pharmacia, Uppsala, Sweden), with 2.7 ml of 0.01 mol pH 7.4 phosphate buffer (PB) at 4° C. The apolipoprotein B100 content is determined by immunoturbidimetry (ABX Diagnostics—Montpellier, France).
Dialyzed LDL (final concentration of 0.06 g of Apo-B/L) in PB at a final volume of 150 μL was incubated in a […] ELISA plate (flat bottom, transparent to UV, Corning®) with 10 μL of methanol in the presence or absence (control) of the compounds object of the study. 10 μL of a 100 μM copper sulfate solution (final concentration of […]) are then added. To minimize evaporation during prolonged incubation periods, 10 μL of mineral oil (Sigma-Aldrich) are added on the surface of the reaction mixture. […] The absorbance at 234 nm is continuously monitored every 15 minutes for 24 hours in an Infinite M200 plate reader (TECAN IBERICA, Männedorf, Switzerland). The controls and the samples (containing concentrations of the compounds to be assayed of 0.5, 1 and 3 μM) were evaluated in the same assay in duplicate and each experiment was repeated three times. […]

T1 sequence (P20272 whole entry): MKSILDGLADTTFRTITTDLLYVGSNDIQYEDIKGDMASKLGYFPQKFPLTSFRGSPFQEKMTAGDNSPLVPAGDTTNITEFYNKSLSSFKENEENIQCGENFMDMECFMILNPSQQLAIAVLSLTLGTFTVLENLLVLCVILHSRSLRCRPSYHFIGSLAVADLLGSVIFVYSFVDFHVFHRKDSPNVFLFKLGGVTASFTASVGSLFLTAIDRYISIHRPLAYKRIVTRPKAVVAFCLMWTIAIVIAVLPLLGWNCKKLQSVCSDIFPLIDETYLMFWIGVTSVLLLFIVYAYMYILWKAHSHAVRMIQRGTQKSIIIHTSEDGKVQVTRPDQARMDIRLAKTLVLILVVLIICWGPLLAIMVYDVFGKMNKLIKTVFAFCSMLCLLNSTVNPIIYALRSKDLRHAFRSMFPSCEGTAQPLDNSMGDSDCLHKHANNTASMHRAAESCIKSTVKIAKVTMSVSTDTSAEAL

| Structure (SMILES) | CB1 Ki (M) (CB1 receptor) | CB1 pKi (CB1 receptor) | reduction of intake with respect to the control group (male Wistar rats) | Ki (CB1 receptor; read-out: CB1 Ki) [µM] | Ki (CB1 receptor; read-out: CB1 pKi (converted)) [µM] | LDL antioxidant activity (lag-time until formation of conjugated dienes) (LDL) |
| --- | --- | --- | --- | --- | --- | --- |
| CCCCCCCC/C=C\CCCCCCCCOCCc1ccc2c(c1)OCO2 [Example 2, (Z)-1-(2-(3,4-methylenedioxyphenyl)ethoxy)octadec-9-ene] | No affinity | No affinity | about 25% | – | – | – |
| CCCCCCCC/C=C\CCCCCCCCOCCc1ccccc1 [Example 3, (Z)-1-(2-phenylethoxy)octadec-9-ene] | No affinity | No affinity | about 25% | – | – | – |
| CCCCC/C=C\C/C=C\CCCCCCCCOCCc1ccc2c(c1)OCO2 [Example 5, (9Z,12Z)-1-(2-(3,4-methylenedioxyphenyl)ethoxy)-octadeca-9,12-diene] | – | – | – | 22.5 | – | – |
| CCCCC/C=C\C/C=C\CCCCCCCCOCCc1ccc(O)c(O)c1 [Example 10, (9Z,12Z)-1-(2-(3,4-dihydroxyphenyl)ethoxy)-octadeca-9,12-diene] | – | – | 50% | 7.49 | 7.59 | activity similar to that of hydroxytyrosol at the three assayed concentrations |
